Measurements from patent publication US11925650B2, “Antibacterial chemical compound, its manufacturing method and its use thereof” (National Taiwan University, priority 2022, dated 2024).
Like-named read-outs stand apart in the source and are kept apart here.

Columns and labels:
S. Typhimurium 14028 = assay: Anti-intracellular Salmonella activity in infected RAW264.7 cells (HCA); type: cell-based, Salmonella Typhimurium; settings: for Selectivity ratio (IC50/EC50): IC50 RAW264.7 / EC50 S. Typhimurium 14028
RAW264.7 = assay: Cytotoxicity in RAW264.7 cells (HCA, MTT cell viability assay); type: cell-based
[1] = Salmonella enterica, TYPHIMURIUM, RAW264.7, read-out: EC50 (μM) S. Typhimurium 14028, intracellular Salmonella in infected RAW264.7 cells
[2] = Mus musculus, RAW264.7, read-out: IC50 (μM) RAW264.7
[3] = Salmonella enterica, TYPHIMURIUM, intracellular Salmonella in infected RAW264.7 cells, read-out: EC50 (μM) S. Typhimurium 14028
[4] = Mus musculus, cytotoxicity, RAW264.7 cells, read-out: IC50 (μM) RAW264.7

Clc1ccc(CCNC2=Nc3ccccc3Oc3ccc(Cl)cc32)cc1 [SW20, 2-chloro-N-(4-chlorophenethyl)dibenzo[b,f][1,4]oxazepin-11-amine]
Selectivity ratio (IC50/EC50) (S. Typhimurium 14028): 2.0
EC50 (S. Typhimurium 14028; [1]): 45.1 µM
IC50 (RAW264.7; [2]): 91.6 µM

CN1CCCC1CCNC1=Nc2cccnc2Nc2ccc(Cl)cc21 (stereo not shown) [SW25, 8-chloro-N-(2-(1-methylpyrrolidin-2-yl)ethyl)-11H-benzo[e]pyrido[3,2-b][1,4]diazepin-6-amine]
Selectivity ratio (IC50/EC50) (S. Typhimurium 14028): 26.2
EC50 (S. Typhimurium 14028; [3]): 3.3 µM
IC50 (RAW264.7; [4]): 85.5 µM

Cc1cc2c(s1)Nc1ccccc1N=C2NCCN1CCNCC1 [SW41, 2-methyl-N-(2-(piperazin-1-yl)ethyl)-10H-benzo[b]thieno[2,3-e][1,4]diazepin-4-amine]
Selectivity ratio (IC50/EC50) (S. Typhimurium 14028): 26.8
EC50 (S. Typhimurium 14028; [1]): 3.9 µM
IC50 (RAW264.7; [2]): 105 µM

Clc1ccc2c(c1)C(NCCN1CCCCC1)=Nc1ccccc1O2 [SW3, 2-chloro-N-(2-(piperidin-1-yl)ethyl)dibenzo[b,f][1,4]oxazepin-11-amine]
Selectivity ratio (IC50/EC50) (S. Typhimurium 14028): 5.1
EC50 (S. Typhimurium 14028; [1]): 4.3 µM
IC50 (RAW264.7; [2]): 22.2 µM

Clc1ccc2c(c1)C(NCCc1cccnc1)=Nc1ccccc1O2 [SW5, 2-chloro-N-(2-(pyridin-3-yl)ethyl)dibenzo[b,f][1,4]oxazepin-11-amine]
Selectivity ratio (IC50/EC50) (S. Typhimurium 14028): 1.9
EC50 (S. Typhimurium 14028; [1]): 38.2 µM
IC50 (RAW264.7; [2]): 74 µM

Clc1ccc2c(c1)C(NCCCN1CCCC1)=Nc1cccnc1N2 [SW29, 8-chloro-N-(3-(pyrrolidin-1-yl)propyl)-11H-benzo[e]pyrido[3,2-b][1,4]diazepin-6-amine]
Selectivity ratio (IC50/EC50) (S. Typhimurium 14028): 18.8
EC50 (S. Typhimurium 14028; [3]): 5.3 µM
IC50 (RAW264.7; [4]): 101 µM

Cc1cc2c(s1)Nc1ccccc1N=C2NCCCN(C)C [SW43, N1,N1-dimethyl-N3-(2-methyl-10H-benzo[b]thieno[2,3-e][1,4]diazepin-4-yl)propane-1,3-diamine]
Selectivity ratio (IC50/EC50) (S. Typhimurium 14028): 82.1
EC50 (S. Typhimurium 14028; [1]): 1.2 µM
IC50 (RAW264.7; [2]): 102 µM

CCC(CC)NC1=Nc2ccccc2Oc2ccc(Cl)cc21 [SW17, 2-chloro-N-(pentan-3-yl)dibenzo[b,f][1,4]oxazepin-11-amine]
Selectivity ratio (IC50/EC50) (S. Typhimurium 14028): 2.6
EC50 (S. Typhimurium 14028; [1]): 28.5 µM
IC50 (RAW264.7; [2]): 72.8 µM

O=C1CCCN1CCCNC1=Nc2ccccc2Oc2ccc(Cl)cc21 [SW23, 1-(3-((2-chlorodibenzo[b,f][1,4]oxazepin-11-yl)amino)propyl)pyrrolidin-2-one]
Selectivity ratio (IC50/EC50) (S. Typhimurium 14028): >1.3
EC50 (S. Typhimurium 14028; [1]): > 90 µM
IC50 (RAW264.7; [2]): > 90 µM

Clc1ccc2c(c1)C(NCc1ccccc1)=Nc1ccccc1O2 [SW9, N-benzyl-2-chlorodibenzo[b,f][1,4]oxazepin-11-amine]
Selectivity ratio (IC50/EC50) (S. Typhimurium 14028): 3.1
EC50 (S. Typhimurium 14028; [1]): 19.7 µM
IC50 (RAW264.7; [2]): 60.8 µM

2-chloro-11-(3-(3,4-dichlorophenyl)propyl)dibenzo[b,f][1,4]oxazepine [SW15]
EC50 (S. Typhimurium 14028; intracellular Salmonella in infected RAW264.7 cells, read-out: EC50 (μM) S. Typhimurium 14028): 31.1 µM
IC50 (RAW264.7; cytotoxicity, RAW264.7 cells, read-out: IC50 (μM) RAW264.7): 82.7 µM

Clc1ccc2c(c1)C(NCCN1CCCC1)=Nc1cccnc1N2 [SW28, 8-chloro-N-(2-(pyrrolidin-1-yl)ethyl)-11H-benzo[e]pyrido[3,2-b][1,4]diazepin-6-amine]
Selectivity ratio (IC50/EC50) (S. Typhimurium 14028): 6.8
EC50 (S. Typhimurium 14028; [3]): 9.3 µM
IC50 (RAW264.7; [4]): 63.2 µM

c1ccc2c(c1)N=C(NCCCN1CCCC1)c1ccccc1N2 [SW33, N-(3-(pyrrolidin-1-yl)propyl)-5H-dibenzo[b,e][1,4]diazepin-11-amine]
Selectivity ratio (IC50/EC50) (S. Typhimurium 14028): 213.4
EC50 (S. Typhimurium 14028; [1]): 0.7 µM
IC50 (RAW264.7; [2]): 143 µM

O=C(CNC1=Nc2ccccc2Oc2ccc(Cl)cc21)N1CCCC1 [SW24, 2-((2-chlorodibenzo[b,f][1,4]oxazepin-11-yl)amino)-1-(pyrrolidin-1-yl)ethan-1-one]
EC50 (S. Typhimurium 14028; [1]): > 90 µM
IC50 (RAW264.7; [2]): > 90 µM

Clc1ccc2c(c1)C(NCCCN1CCCCC1)=Nc1ccccc1O2 [SW26, 2-chloro-N-(3-(piperidin-1-yl)propyl)dibenzo[b,f][1,4]oxazepin-11-amine]
Selectivity ratio (IC50/EC50) (S. Typhimurium 14028): 14.6
EC50 (S. Typhimurium 14028; [1]): 1.1 µM
IC50 (RAW264.7; [2]): 16.1 µM

Cc1cc2c(s1)Nc1ccccc1N=C2NCCN(C)C [SW39, N1,N1-dimethyl-N2-(2-methyl-10H-benzo[b]thieno[2,3-e][1,4]diazepin-4-yl)ethane-1,2-diamine]
Selectivity ratio (IC50/EC50) (S. Typhimurium 14028): 72.5
EC50 (S. Typhimurium 14028; [1]): 1.7 µM
IC50 (RAW264.7; [2]): 122 µM

CCCNC1=Nc2ccccc2Oc2ccc(Cl)cc21 [SW13, 2-chloro-N-propyldibenzo[b,f][1,4]oxazepin-11-amine]
Selectivity ratio (IC50/EC50) (S. Typhimurium 14028): 2.0
EC50 (S. Typhimurium 14028; [1]): 56 µM
IC50 (RAW264.7; [2]): 112 µM

Clc1ccc2c(c1)C(NCCN1CCCC1)=Nc1ccccc1O2 [SW2, 2-chloro-N-(2-(pyrrolidin-1-yl)ethyl)dibenzo[b,f][1,4]oxazepin-11-amine]
Selectivity ratio (IC50/EC50) (S. Typhimurium 14028): 5.4
EC50 (S. Typhimurium 14028; [1]): 4.9 µM
IC50 (RAW264.7; [2]): 26.6 µM

Clc1ccc2c(c1)C(NCC1CC1)=Nc1ccccc1O2 [SW11, 2-chloro-N-(cyclopropylmethyl)dibenzo[b,f][1,4]oxazepin-11-amine]
Selectivity ratio (IC50/EC50) (S. Typhimurium 14028): 1.7
EC50 (S. Typhimurium 14028; [1]): 44 µM
IC50 (RAW264.7; [2]): 74 µM

Cc1cc2c(s1)Nc1ccccc1N=C2NCCCN1CCCC1 [SW42, 2-methyl-N-(3-(pyrrolidin-1-yl)propyl)-10H-benzo[b]thieno[2,3-e][1,4]diazepin-4-amine]
Selectivity ratio (IC50/EC50) (S. Typhimurium 14028): 82.6
EC50 (S. Typhimurium 14028; [1]): 0.9 µM
IC50 (RAW264.7; [2]): 76.4 µM

CC(C)CCNC1=Nc2ccccc2Oc2ccc(Cl)cc21 [SW18, 2-chloro-N-isopentyldibenzo[b,f][1,4]oxazepin-11-amine]
Selectivity ratio (IC50/EC50) (S. Typhimurium 14028): 1.3
EC50 (S. Typhimurium 14028; [1]): 55.1 µM
IC50 (RAW264.7; [2]): 70.1 µM

CCCCCNC1=Nc2ccccc2Oc2ccc(Cl)cc21 [SW8, 2-chloro-N-pentyldibenzo[b,f][1,4]oxazepin-11-amine]
Selectivity ratio (IC50/EC50) (S. Typhimurium 14028): 1.3
EC50 (S. Typhimurium 14028; [1]): 54.1 µM
IC50 (RAW264.7; [2]): 72.7 µM

Cc1cc2c(s1)Nc1ccccc1N=C2NCCN1CCCCC1 [SW38, 2-methyl-N-(2-(piperidin-1-yl)ethyl)-10H-benzo[b]thieno[2,3-e][1,4]diazepin-4-amine]
Selectivity ratio (IC50/EC50) (S. Typhimurium 14028): 22.4
EC50 (S. Typhimurium 14028; [1]): 1.6 µM
IC50 (RAW264.7; [2]): 36.5 µM

CN(C)CCNC1=Nc2cccnc2Nc2ccc(Cl)cc21 [SW27, N1-(8-chloro-11H-benzo[e]pyrido[3,2-b][1,4]diazepin-6-yl)-N2,N2-dimeth ylethane-1,2-diamine]
Selectivity ratio (IC50/EC50) (S. Typhimurium 14028): >13.9
EC50 (S. Typhimurium 14028; [3]): 6.5 µM
IC50 (RAW264.7; [4]): > 90 µM

Clc1ccc2c(c1)C(NCCN1CCOCC1)=Nc1ccccc1O2 [SW4, 2-chloro-N-(2-morpholinoethyl)dibenzo[b,f][1,4]oxazepin-11-amine]
Selectivity ratio (IC50/EC50) (S. Typhimurium 14028): 2.6
EC50 (S. Typhimurium 14028; [1]): 32 µM
IC50 (RAW264.7; [2]): 84.7 µM

CN1CCCC1CCNC1=Nc2ccccc2Oc2ccc(Cl)cc21 (stereo not shown) [SW6, 2-chloro-N-(2-(1-methylpyrrolidin-2-yl)ethyl)dibenzo[b,f][1,4]oxazepin-11-amine]
Selectivity ratio (IC50/EC50) (S. Typhimurium 14028): 18.9
EC50 (S. Typhimurium 14028; [1]): 1.2 µM
IC50 (RAW264.7; [2]): 23 µM

CN1CCN(CCCNC2=Nc3cccnc3Nc3ccc(Cl)cc32)CC1 [SW31, 8-chloro-N-(3-(4-methylpiperazin-1-yl)propyl)-11H-benzo[e]pyrido[3,2-b][1,4]diazepin-6-amine]
Selectivity ratio (IC50/EC50) (S. Typhimurium 14028): 18.7
EC50 (S. Typhimurium 14028; [3]): 7 µM
IC50 (RAW264.7; [4]): 129 µM

Oc1ccc(CCNC2=Nc3ccccc3Oc3ccc(Cl)cc32)cc1 [SW12, 4-(2-((2-chlorodibenzo[b,f][1,4]oxazepin-11-yl)amino)ethyl)phenol]
Selectivity ratio (IC50/EC50) (S. Typhimurium 14028): 1.6
EC50 (S. Typhimurium 14028; [1]): 33.5 µM
IC50 (RAW264.7; [2]): 52.1 µM

CN(C)CCNC1=Nc2ccccc2Oc2ccc(Cl)cc21 [SW1, N1-(2-chlorodibenzo[b,f][1,4]oxazepin-11-yl)-N2,N2-dimethylethane-1,2-diamine]
Selectivity ratio (IC50/EC50) (S. Typhimurium 14028): 9.5
EC50 (S. Typhimurium 14028; [1]): 3.6 µM
IC50 (RAW264.7; [2]): 34.6 µM

Fc1ccc(CCNC2=Nc3ccccc3Oc3ccc(Cl)cc32)cc1 [SW19, 2-chloro-N-(4-fluorophenethyl)dibenzo[b,f][1,4]oxazepin-11-amine]
Selectivity ratio (IC50/EC50) (S. Typhimurium 14028): 1.8
EC50 (S. Typhimurium 14028; [1]): 61.5 µM
IC50 (RAW264.7; [2]): 112 µM

Clc1ccc2c(c1)C(NCCCN1CCCC1)=Nc1ccccc1O2 [SW22, 2-chloro-N-(3-(pyrrolidin-1-yl)propyl)dibenzo[b,f][1,4]oxazepin-11-amine]
Selectivity ratio (IC50/EC50) (S. Typhimurium 14028): 14.8
EC50 (S. Typhimurium 14028; [1]): 1.1 µM
IC50 (RAW264.7; [2]): 16.3 µM

Clc1ccc2c(c1)C(NCCc1ccccc1)=Nc1ccccc1O2 [SW7, 2-chloro-N-phenethyldibenzo[b,f][1,4]oxazepin-11-amine]
Selectivity ratio (IC50/EC50) (S. Typhimurium 14028): 2.7
EC50 (S. Typhimurium 14028; [1]): 21.2 µM
IC50 (RAW264.7; [2]): 56.3 µM
